Results reported in US5244678A, “Pharmaceutical composition containing a local anesthetic and/or centrally acting analgesic encapsulated in liposomes” (Ire-Celltarg S.A., priority 1986, dated 1993).
Entries after “also recorded” stand apart in the source; their conditions may differ.

Tests used:
[1] = Blood kinetics in whole blood after peridural injection in rabbits; assay type: in vivo; conditions: rabbit
Experimental: Biodistribution and pharmacokinetics of the liposomes which have incorporated bupivacaine, administered peridurally
The formation of MLVs takes place by adding 3 ml of 0.3M Tris-HCl buffer, pH 8, followed by 5 centrifugations at 5000 g in the same buffer.
The results are expressed as a percentage of the injected dose (ID) in the whole blood.

[2] = Urinary excretion of radioactivity 2 hours after peridural injection; assay type: in vivo; conditions: rabbit, mean ± standard deviation, n=3
Experimental: Radioactivity excreted in the urine (ID×10^2) 2 hours after the peridural injection of [^3 H]Ch-labeled SUV, of MLV which has integrated ^3 H-labeled bupivacaine, or of non-encapsulated bupivacaine. Mean±standard deviation; the number in brackets=the number of animals.

[3] = Biodistribution in the liver and heart 4 hours after peridural injection; assay type: in vivo; conditions: rabbit, mean ± standard deviation, n=3
Experimental: 0.2 ml of the centrifugation pellet are administered peridurally to rabbits, under the same conditions as in Example 1.
By way of control, 4.5 mg of bupivacaine for clinical use (Marcaine®-Astra-[…] strength hydrochloride solution) is administered under the same conditions with or without adrenaline, and with the addition of 0.01 mCi of [^3 H]bupivacaine, this combination being present in a total 0.2 ml of solution.
Likewise, by way of control, SUVs without bupivacaine are administered in the course of this study, under the conditions stated in Example 1.
The animals are sacrificed 120 and 240 minutes after the injection, and the organs and tissues are sampled under the same conditions as those of Example 1.
Biodistribution of [^3 H]Ch SUV, of MLVS which have integrated [^3 H]bupivacaine, and of bupivacaine, in the liver and heart 4 hours after the peridural injection (ID×10^2).

[4] = Uptake by the nervous tissues after peridural injection; assay type: in vivo; conditions: rabbit, mean ± standard deviation, n=3
Source text: Mean±standarddeviation; number in brackets=number of animals.

tail of rats = experiment: Analgesic effect: threshold of the pain induced by an electric shock to the tail of rats; assay type: in vivo; conditions: rat tail, point S2
Experimental: The analgesic effect is measured by the increase in the threshold of the pain induced by an electric shock to the tail of rats.
Lipid film: Egg Pc/Chol, 4:3-60 mg of lipids (equivalent to 43.26 mg of egg Pc and 16.74 mg of Chol)+5 mg of bupivacaine base in lyophilized, liposoluble form. Formation of the liposomes: Suspension of the lipid film in the form of multilamellar liposomes in a 0.3M Tris-HCl buffer, pH 8 (3 ml). The liposomal suspension is centrifuged, and the liposomal pellet is injected as it is (0.5 ml) under the skin, in the rat's tail at a point S2.
The pain threshold is measured by electrical excitation at S2, and then at S1 (S1, situated 5 cm downstream from the injection point, serves for taking a reference with respect to the injection point, and also for measuring the possible diffusion of the product injected at S2).

motor fibers = conditions: bupivacaine used today in anesthesia; general knowledge; cited from earlier work

CCCCN1CCCCC1C(=O)Nc1c(C)cccc1C (stereo not drawn) [Bupivacaine, bupivacaine]
highest blood level (blood peak) [1]: 1.4 % of the injected dose
Radioactivity excreted in the urine [2]: 11.633 ± 0.518 ID×10^2
Biodistribution in the heart [3]: 2.142 ± 0.301 ID×10^2
Biodistribution in the liver [3]: 20.477 ± 1.458 ID×10^2
Uptake by brachial plexus ([4]; 2 hrs): 0.295 ± 0.048 ID in 1 g×10^3
Uptake by cauda equina ([4]; 2 hrs): 0.485 ± 0.057 ID in 1 g×10^3
Uptake by lumbar marrow ([4]; 2 hrs): 0.411 ± 0.094 ID in 1 g×10^3
Uptake by sciatic nerve ([4]; 2 hrs): 0.281 ± 0.026 ID in 1 g×10^3
Uptake by brachial plexus ([4]; 4 hrs): 1.136 ± 0.008 ID in 1 g×10^3
Uptake by cauda equina ([4]; 4 hrs): 0.132 ± 0.035 ID in 1 g×10^3
Uptake by lumbar marrow ([4]; 4 hrs): 0.169 ± 0.046 ID in 1 g×10^3
Uptake by nerve roots ([4]; 4 hrs): 0.153 ± 0.023 ID in 1 g×10^3
Uptake by sciatic nerve ([4]; 4 hrs): 0.132 ± 0.028 ID in 1 g×10^3
time of rise of the pain threshold after injection (tail of rats): less than one hour
effect on sensory and motor fibers (motor fibers): blocks the sensory fibers and not the motor fibers; also recorded: affects motor fibers to only a small extent, if at all
